Experimental data published in patent publication US20080103159A1, “Composition Comprising Ocaperidone” (priority 2005, published 2008).
Values after ≈ are worked out from the molar mass of the structure shown.

Legend:
[1] = Bioavailability studies with conventional oral dosage forms in animals; assay type: in vivo
Source text: (§1) One of the objects of the invention is to overcome these drawbacks observed with conventional dosage forms.

[2] = Solubility of ocaperidone in water and buffers of gastro-intestinal fluids; assay type: physicochemical
Method: Ocaperidone is virtually insoluble in water. Its water solubility is less or equal to 0.007 mg per mL. […] In order to be absorbed uniformly from the gastrointestinal tract after oral administration, the drug must be dissolved and must remain in the solution for absorption. The pH of the gastrointestinal tract varies from pH 1 to 5 in the stomach and pH 4 to 7.5 in the intestine. There is also known significant variation of the intestinal pH on an intra- and inter-individual basis in the general population. This variation is mostly attributed to factors such as gastro-intestinal motility, concomitantly administered food or drug and food habits etc. It is an object of the present invention to provide a therapeutic system for ocaperidone from which, despite its very low solubility in water (0.007 mg/mL), is dispensed/released in the surrounding intestinal environment in a dissolved state. This invention eliminates the effect of surrounding pH on the solubility of ocaperidone. In addition, this improvement in solubility makes this therapeutic system to function appropriately from the bioavailability point of view and overcomes the inter- and intra-individual variability.

[3] = Bioavailability studies with conventional oral dosage forms in humans; assay type: in vivo; settings: within a patient and between patients
Source text: as §1

variability of bioavailability [1]: significant high variability
solubility in the buffers of gastro-intestinal fluids ([2]; buffers of pH 3.0 and above): in the same range as that of water
solubility ([2]; water): 7 µg/mL (≈ 16.6 µM)
water solubility ([2]; water): ≤ 0.007 mg per mL
variability of bioavailability [3]: significant high variability
Structure (SMILES): Cc1nc2c(C)cccn2c(=O)c1CCN1CCC(c2noc3cc(F)ccc23)CC1 [Ocaperidone]
